Experimental data reported in patent US8993542B2, “Methods of treating viral infections” (priority 2008, dated 2015).
Read-outs that look alike come from different tables or passages of the source.

Assays:
HIV-1 Subtype Isolates = assay: Activity against HIV-1 subtype isolates in PBMCs, RT endpoint; conditions: for IC50: Human immunodeficiency virus 1, PBMC
PBMCs = assay: Cytotoxicity (TC50) in PBMCs; format: cell-based
[1] = Cytotoxicity (TC50) in PBMCs; format: cell-based; conditions: PBMCs
HIV-2 Isolates = assay: Activity against HIV-2 isolates in PBMCs, RT endpoint; format: cell-based; conditions: for IC50: Human immunodeficiency virus 2, PBMC

CCCCCCCCCCCCCCCCOCCCOP(=O)(O)CO[C@H](C)Cn1cnc2c(N)ncnc21 [CMX157, Hexadecyloxypropyl-9-R-[2-(Phosphonomethoxy)Propyl]-Adenine]
IC50 (HIV-1 Subtype Isolates; read-out: IC50s against all major HIV subtypes, subtypes A-G, O and HIV-2, Tables 2 and 3): 0.2 to 7.2 nM | IC50 (HIV-1 Subtype Isolates; read-out: RT Endpoint IC50, isolate 96USHIPS7, subtype B): 4.8 nM | IC50 (HIV-1 Subtype Isolates; read-out: RT Endpoint IC50, isolate ADA, subtype B): 1.08 nM | IC50 (HIV-1 Subtype Isolates; read-out: RT Endpoint IC50, isolate BCF01, subtype O): 7.18 nM | IC50 (HIV-1 Subtype Isolates; read-out: RT Endpoint IC50, isolate BCF02, subtype O): 2.47 nM | IC50 (HIV-1 Subtype Isolates; read-out: RT Endpoint IC50, isolate BCF03, subtype O): 5.29 nM | IC50 (HIV-1 Subtype Isolates; read-out: RT Endpoint IC50, isolate BR/92/014, subtype B): 1.58 nM | IC50 (HIV-1 Subtype Isolates; read-out: RT Endpoint IC50, isolate BR/92/025, subtype C): 3.43 nM | IC50 (HIV-1 Subtype Isolates; read-out: RT Endpoint IC50, isolate BR/93/019, subtype F): 6.4 nM | IC50 (HIV-1 Subtype Isolates; read-out: RT Endpoint IC50, isolate BR/93/020, subtype F): 0.73 nM | IC50 (HIV-1 Subtype Isolates; read-out: RT Endpoint IC50, isolate BR/93/029, subtype F): 1.03 nM | IC50 (HIV-1 Subtype Isolates; read-out: RT Endpoint IC50, isolate CMU06, subtype E): 1.03 nM | IC50 (HIV-1 Subtype Isolates; read-out: RT Endpoint IC50, isolate CMU08, subtype E): 2.81 nM | IC50 (HIV-1 Subtype Isolates; read-out: RT Endpoint IC50, isolate G3, subtype G): 2.68 nM | IC50 (HIV-1 Subtype Isolates; read-out: RT Endpoint IC50, isolate IN/93/101, subtype C): 0.53 nM | IC50 (HIV-1 Subtype Isolates; read-out: RT Endpoint IC50, isolate JR-CSF, subtype B): 0.68 nM | IC50 (HIV-1 Subtype Isolates; read-out: RT Endpoint IC50, isolate JV1083, subtype G): 2.32 nM | IC50 (HIV-1 Subtype Isolates; read-out: RT Endpoint IC50, isolate MW/93/959, subtype C): 4.5 nM | IC50 (HIV-1 Subtype Isolates; read-out: RT Endpoint IC50, isolate RU132, subtype G): 1.63 nM | IC50 (HIV-1 Subtype Isolates; read-out: RT Endpoint IC50, isolate RW/92/009, subtype A): 1.75 nM | IC50 (HIV-1 Subtype Isolates; read-out: RT Endpoint IC50, isolate TH/92/026, subtype B): 0.44 nM | IC50 (HIV-1 Subtype Isolates; read-out: RT Endpoint IC50, isolate TH/93/073, subtype E): 2.95 nM | IC50 (HIV-1 Subtype Isolates; read-out: RT Endpoint IC50, isolate UG/92/001, subtype D): 5.16 nM | IC50 (HIV-1 Subtype Isolates; read-out: RT Endpoint IC50, isolate UG/92/024, subtype D): 0.3 nM | IC50 (HIV-1 Subtype Isolates; read-out: RT Endpoint IC50, isolate UG/92/029, subtype A): 5.84 nM | IC50 (HIV-1 Subtype Isolates; read-out: RT Endpoint IC50, isolate UG/92/037, subtype A): 2.3 nM | IC50 (HIV-1 Subtype Isolates; read-out: RT Endpoint IC50, isolate UG/92/046, subtype D): 0.96 nM | TI (TC50/IC50) (HIV-1 Subtype Isolates; isolate 96USHIPS7, subtype B): >208 | TI (TC50/IC50) (HIV-1 Subtype Isolates; isolate ADA, subtype B): >925 | TI (TC50/IC50) (HIV-1 Subtype Isolates; isolate BCF01, subtype O): >139 | TI (TC50/IC50) (HIV-1 Subtype Isolates; isolate BCF02, subtype O): >405 | TI (TC50/IC50) (HIV-1 Subtype Isolates; isolate BCF03, subtype O): >189 | TI (TC50/IC50) (HIV-1 Subtype Isolates; isolate BR/92/014, subtype B): >633 | TI (TC50/IC50) (HIV-1 Subtype Isolates; isolate BR/92/025, subtype C): >291 | TI (TC50/IC50) (HIV-1 Subtype Isolates; isolate BR/93/019, subtype F): >156 | TI (TC50/IC50) (HIV-1 Subtype Isolates; isolate BR/93/020, subtype F): >1,362 | TI (TC50/IC50) (HIV-1 Subtype Isolates; isolate BR/93/029, subtype F): >972 | TI (TC50/IC50) (HIV-1 Subtype Isolates; isolate CMU06, subtype E): >970 | TI (TC50/IC50) (HIV-1 Subtype Isolates; isolate CMU08, subtype E): >356 | TI (TC50/IC50) (HIV-1 Subtype Isolates; isolate G3, subtype G): >373 | TI (TC50/IC50) (HIV-1 Subtype Isolates; isolate IN/93/101, subtype C): >1,892 | TI (TC50/IC50) (HIV-1 Subtype Isolates; isolate JR-CSF, subtype B): >1,480 | TI (TC50/IC50) (HIV-1 Subtype Isolates; isolate JV1083, subtype G): >431 | TI (TC50/IC50) (HIV-1 Subtype Isolates; isolate MW/93/959, subtype C): >222 | TI (TC50/IC50) (HIV-1 Subtype Isolates; isolate RU132, subtype G): >615 | TI (TC50/IC50) (HIV-1 Subtype Isolates; isolate RW/92/009, subtype A): >571 | TI (TC50/IC50) (HIV-1 Subtype Isolates; isolate TH/92/026, subtype B): >2,278 | TI (TC50/IC50) (HIV-1 Subtype Isolates; isolate TH/93/073, subtype E): >339 | TI (TC50/IC50) (HIV-1 Subtype Isolates; isolate UG/92/001, subtype D): >194 | TI (TC50/IC50) (HIV-1 Subtype Isolates; isolate UG/92/024, subtype D): >3,346 | TI (TC50/IC50) (HIV-1 Subtype Isolates; isolate UG/92/029, subtype A): >171 | TI (TC50/IC50) (HIV-1 Subtype Isolates; isolate UG/92/037, subtype A): >435 | TI (TC50/IC50) (HIV-1 Subtype Isolates; isolate UG/92/046, subtype D): >1,039 | CC50 (PBMCs; HIV-2 isolate CBL-20): > 1000 nM | CC50 (PBMCs; HIV-2 isolate CDC310342): > 1000 nM | CC50 (PBMCs; isolate 96USHIPS7, subtype B, read-out: TC 50 (the source's name)): > 1000 nM | CC50 (PBMCs; isolate BCF01, subtype O, read-out: TC 50 (the source's name)): > 1000 nM | CC50 (PBMCs; isolate BCF02, subtype O, read-out: TC 50 (the source's name)): > 1000 nM | CC50 (PBMCs; isolate BCF03, subtype O, read-out: TC 50 (the source's name)): > 1000 nM | CC50 (PBMCs; isolate BR/92/014, subtype B, read-out: TC 50 (the source's name)): > 1000 nM | CC50 (PBMCs; isolate BR/92/025, subtype C, read-out: TC 50 (the source's name)): > 1000 nM | CC50 (PBMCs; isolate BR/93/019, subtype F, read-out: TC 50 (the source's name)): > 1000 nM | CC50 (PBMCs; isolate BR/93/020, subtype F, read-out: TC 50 (the source's name)): > 1000 nM | CC50 (PBMCs; isolate BR/93/029, subtype F, read-out: TC 50 (the source's name)): > 1000 nM | CC50 (PBMCs; isolate CMU06, subtype E, read-out: TC 50 (the source's name)): > 1000 nM | CC50 (PBMCs; isolate CMU08, subtype E, read-out: TC 50 (the source's name)): > 1000 nM | CC50 (PBMCs; isolate G3, subtype G, read-out: TC 50 (the source's name)): > 1000 nM | CC50 (PBMCs; isolate IN/93/101, subtype C, read-out: TC 50 (the source's name)): > 1000 nM | CC50 (PBMCs; isolate JR-CSF, subtype B, read-out: TC 50 (the source's name)): > 1000 nM | CC50 (PBMCs; isolate JV1083, subtype G, read-out: TC 50 (the source's name)): > 1000 nM | CC50 (PBMCs; isolate MW/93/959, subtype C, read-out: TC 50 (the source's name)): > 1000 nM | CC50 (PBMCs; isolate RU132, subtype G, read-out: TC 50 (the source's name)): > 1000 nM | CC50 (PBMCs; isolate RW/92/009, subtype A, read-out: TC 50 (the source's name)): > 1000 nM | CC50 (PBMCs; isolate TH/92/026, subtype B, read-out: TC 50 (the source's name)): > 1000 nM | CC50 (PBMCs; isolate TH/93/073, subtype E, read-out: TC 50 (the source's name)): > 1000 nM | CC50 (PBMCs; isolate UG/92/001, subtype D, read-out: TC 50 (the source's name)): > 1000 nM | CC50 (PBMCs; isolate UG/92/024, subtype D, read-out: TC 50 (the source's name)): > 1000 nM | CC50 (PBMCs; isolate UG/92/029, subtype A, read-out: TC 50 (the source's name)): > 1000 nM | CC50 (PBMCs; isolate UG/92/037, subtype A, read-out: TC 50 (the source's name)): > 1000 nM | CC50 (PBMCs; isolate UG/92/046, subtype D, read-out: TC 50 (the source's name)): > 1000 nM | CC50 ([1]; HIV-2 isolate CDC310319): > 1000 nM | CC50 ([1]; human, isolate ADA, subtype B, read-out: TC 50 (the source's name)): > 1000 nM | TI (TC50/IC50) (HIV-2 Isolates; HIV-2 isolate CBL-20): >223 | TI (TC50/IC50) (HIV-2 Isolates; HIV-2 isolate CDC310319): >564 | TI (TC50/IC50) (HIV-2 Isolates; HIV-2 isolate CDC310342): >232 | IC50 (HIV-2 Isolates; HIV-2 isolate CBL-20): 4.48 nM | IC50 (HIV-2 Isolates; HIV-2 isolate CDC310319): 1.77 nM | IC50 (HIV-2 Isolates; HIV-2 isolate CDC310342): 4.31 nM
